According to PMC7531004, “Discovery of gramicidin A analogues with altered activities by multidimensional screening of a one-bead-one-compound library” (Nature Communications, 2020):
Where a SMILES comes first, the peptide text is derived from it. [ ]: non-standard residue; d: D form. The star is where a group is joined. NHCH2CH2OH = OCCN*; For = O=C*

Tests used:
[1] = H+/Na+ transport assay of bead-derived peptides (one-point); assay type: biochemical; parameters: key: relative activity; mean of two control wells = 1.00; details: bead-derived peptide solution, EYPC/EYPG LUVs;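 also: relative to parent gramicidin A activity set to 1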
Summary of the method: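 Miniaturized 96-well format. LUVs with entrapped pyranine (1.0 mM) were exposed to peptide for 30 min at RT. Intensities were expressed relative to full lysis by Triton X-100 and no treatment, with control-well mean = 1.00.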

[2] = system: P388 mouse leukemia cells; details: 92 h
Summary of the method: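 Peptide stocks diluted 250× in growth medium; P388 cells 1 × 10^4 cells/mL final; 37 °C, 5% CO2, 92 h. WST-1 + 1-methoxy PMS, 4 h, A415. Output: % viability.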

[3] = system: Streptococcus pyogenes SSI-9; assay: Antibacterial activity assay of bead-derived peptides (three concentrations); assay type: cell-based; parameters: key: +++: inhibition by the 640-fold diluted peptide solution; ++: inhibition by the 160-fold diluted solution; +: inhibition by the 40-fold diluted solution; -: no inhibition; details: S. pyogenes, bead-derived peptide solution, three concentrations
Summary of the method: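 Growth inhibition scored visually as precipitated bacteria after 37 °C, 18 h incubation. Streptococcus pyogenes SSI-9 inoculum of 2 × 10^5 CFU in Ca2+/Mg2+-adjusted Mueller Hinton broth plus 5% laked horse blood; peptides tested at three levels: stock, 4-fold and 16-fold DMSO dilutions.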

SMILES | H+/Na+ transport activity normalized against the value of 1 (1.00) [1] | cell viability/% [2] [%] | antibacterial activity [3]
CC(C)C[C@@H](NC(=O)[C@H](C)NC(=O)[C@H](NC(=O)[C@H](C)NC(=O)CNC(=O)[C@@H](NC=O)C(C)C)C(C)C)C(=O)N[C@H](C(=O)N[C@H](CC(C)C)C(=O)N[C@@H](Cc1c[nH]c2ccccc12)C(=O)N[C@H](CC(C)C)C(=O)N[C@@H](Cc1c[nH]c2ccccc12)C(=O)N[C@@H](C(=O)N[C@@H](Cc1c[nH]c2ccccc12)C(=O)N[C@@H](C(=O)N[C@@H](Cc1c[nH]c2ccccc12)C(=O)NCCO)[C@H](C)O)C(C)C)C(C)C [compound 6943] (For-VGA[dV]A[dL]V[dL]W[dL]W[dV]W[dT]W-NHCH2CH2OH) | 1.02 | 100.0 | -
CC(C)C[C@@H](NC(=O)[C@H](C)NC(=O)CNC(=O)[C@@H](NC=O)C(C)C)C(=O)N[C@@H](C)C(=O)N[C@H](CC(C)C)C(=O)N[C@H](C(=O)N[C@@H](C(=O)N[C@@H](Cc1c[nH]c2ccccc12)C(=O)N[C@@H](C(=O)N[C@@H](Cc1c[nH]c2ccccc12)C(=O)N[C@@H](C(=O)N[C@@H](Cc1c[nH]c2ccccc12)C(=O)N[C@H](CC(C)C)C(=O)N[C@@H](Cc1c[nH]c2ccccc12)C(=O)NCCO)C(C)C)[C@H](C)O)C(C)C)C(C)C [compound 6950] (For-VGA[dL]A[dL]V[dV]W[dT]W[dV]W[dL]W-NHCH2CH2OH) | 1.06 | 100.0 | -
CC(C)C[C@@H](NC(=O)[C@H](C)NC(=O)[C@H](NC(=O)[C@H](C)NC(=O)CNC(=O)[C@@H](NC=O)C(C)C)[C@H](C)O)C(=O)N[C@H](C(=O)N[C@H](CC(C)C)C(=O)N[C@@H](Cc1c[nH]c2ccccc12)C(=O)N[C@@H](C(=O)N[C@@H](Cc1c[nH]c2ccccc12)C(=O)N[C@@H](C(=O)N[C@@H](Cc1c[nH]c2ccccc12)C(=O)N[C@H](CC(C)C)C(=O)N[C@@H](Cc1c[nH]c2ccccc12)C(=O)NCCO)C(C)C)[C@H](C)O)C(C)C [compound 7015] (For-VGA[dT]A[dL]V[dL]W[dT]W[dV]W[dL]W-NHCH2CH2OH) | 1.07 | 100.0 | -
CC(C)C[C@@H](NC(=O)[C@H](C)NC(=O)CNC(=O)[C@@H](NC=O)C(C)C)C(=O)N[C@@H](C)C(=O)N[C@H](CC(C)C)C(=O)N[C@H](C(=O)N[C@@H](C(=O)N[C@@H](Cc1c[nH]c2ccccc12)C(=O)N[C@@H](C(=O)N[C@@H](Cc1c[nH]c2ccccc12)C(=O)N[C@H](CC(C)C)C(=O)N[C@@H](Cc1c[nH]c2ccccc12)C(=O)N[C@H](CC(C)C)C(=O)N[C@@H](Cc1c[nH]c2ccccc12)C(=O)NCCO)[C@H](C)O)C(C)C)C(C)C [compound 7067] (For-VGA[dL]A[dL]V[dV]W[dT]W[dL]W[dL]W-NHCH2CH2OH) | 1.02 | 100.0 | -
CC(C)C[C@@H](NC(=O)[C@H](C)NC(=O)CNC(=O)[C@@H](NC=O)C(C)C)C(=O)N[C@@H](C)C(=O)N[C@H](CC(C)C)C(=O)N[C@H](C(=O)N[C@@H](C(=O)N[C@@H](Cc1c[nH]c2ccccc12)C(=O)N[C@@H](C(=O)N[C@@H](Cc1c[nH]c2ccccc12)C(=O)N[C@@H](C(=O)N[C@@H](Cc1c[nH]c2ccccc12)C(=O)N[C@@H](C(=O)N[C@@H](Cc1c[nH]c2ccccc12)C(=O)NCCO)C(C)C)C(C)C)C(C)C)C(C)C)C(C)C [compound 7100] (For-VGA[dL]A[dL]V[dV]W[dV]W[dV]W[dV]W-NHCH2CH2OH) | 1.07 | 100.0 | -
CC(C)C[C@@H](NC(=O)[C@H](C)NC(=O)[C@H](NC(=O)[C@H](C)NC(=O)CNC(=O)[C@@H](NC=O)C(C)C)C(C)C)C(=O)N[C@H](C(=O)N[C@@H](C(=O)N[C@@H](Cc1c[nH]c2ccccc12)C(=O)N[C@@H](C(=O)N[C@@H](Cc1c[nH]c2ccccc12)C(=O)N[C@H](CC(C)C)C(=O)N[C@@H](Cc1c[nH]c2ccccc12)C(=O)N[C@@H](C(=O)N[C@@H](Cc1c[nH]c2ccccc12)C(=O)NCCO)C(C)C)C(C)C)[C@H](C)O)C(C)C [compound 7131] (For-VGA[dV]A[dL]V[dT]W[dV]W[dL]W[dV]W-NHCH2CH2OH) | 1.08 | 100.0 | -
CC(C)C[C@@H](NC(=O)[C@H](C)NC(=O)[C@H](NC(=O)[C@H](C)NC(=O)CNC(=O)[C@@H](NC=O)C(C)C)[C@H](C)O)C(=O)N[C@H](C(=O)N[C@H](CC(C)C)C(=O)N[C@@H](Cc1c[nH]c2ccccc12)C(=O)N[C@@H](C(=O)N[C@@H](Cc1c[nH]c2ccccc12)C(=O)N[C@H](CC(C)C)C(=O)N[C@@H](Cc1c[nH]c2ccccc12)C(=O)N[C@@H](C(=O)N[C@@H](Cc1c[nH]c2ccccc12)C(=O)NCCO)C(C)C)[C@H](C)O)C(C)C [compound 7135] (For-VGA[dT]A[dL]V[dL]W[dT]W[dL]W[dV]W-NHCH2CH2OH) | 1.09 | 100.0 | -
CC(C)C[C@@H](NC(=O)[C@H](C)NC(=O)[C@H](NC(=O)[C@H](C)NC(=O)CNC(=O)[C@@H](NC=O)C(C)C)C(C)C)C(=O)N[C@H](C(=O)N[C@@H](C(=O)N[C@@H](Cc1c[nH]c2ccccc12)C(=O)N[C@H](CC(C)C)C(=O)N[C@@H](Cc1c[nH]c2ccccc12)C(=O)N[C@@H](C(=O)N[C@@H](Cc1c[nH]c2ccccc12)C(=O)N[C@H](CC(C)C)C(=O)N[C@@H](Cc1c[nH]c2ccccc12)C(=O)NCCO)C(C)C)C(C)C)C(C)C [compound 7146] (For-VGA[dV]A[dL]V[dV]W[dL]W[dV]W[dL]W-NHCH2CH2OH) | 1.17 | 100.0 | +
CC(C)C[C@@H](NC(=O)[C@H](C)NC(=O)[C@H](NC(=O)[C@H](C)NC(=O)CNC(=O)[C@@H](NC=O)C(C)C)C(C)C)C(=O)N[C@H](C(=O)N[C@@H](C(=O)N[C@@H](Cc1c[nH]c2ccccc12)C(=O)N[C@@H](C(=O)N[C@@H](Cc1c[nH]c2ccccc12)C(=O)N[C@H](CC(C)C)C(=O)N[C@@H](Cc1c[nH]c2ccccc12)C(=O)N[C@H](CC(C)C)C(=O)N[C@@H](Cc1c[nH]c2ccccc12)C(=O)NCCO)C(C)C)C(C)C)C(C)C [compound 7169] (For-VGA[dV]A[dL]V[dV]W[dV]W[dL]W[dL]W-NHCH2CH2OH) | 1.15 | 90.3 | +
CC(C)C[C@@H](NC(=O)[C@H](C)NC(=O)CNC(=O)[C@@H](NC=O)C(C)C)C(=O)N[C@@H](C)C(=O)N[C@@H](C(=O)N[C@H](C(=O)N[C@H](CC(C)C)C(=O)N[C@@H](Cc1c[nH]c2ccccc12)C(=O)N[C@H](CC(C)C)C(=O)N[C@@H](Cc1c[nH]c2ccccc12)C(=O)N[C@@H](C(=O)N[C@@H](Cc1c[nH]c2ccccc12)C(=O)N[C@H](CC(C)C)C(=O)N[C@@H](Cc1c[nH]c2ccccc12)C(=O)NCCO)C(C)C)C(C)C)C(C)C [compound 7191] (For-VGA[dL]A[dV]V[dL]W[dL]W[dV]W[dL]W-NHCH2CH2OH) | 1.15 | 0.0 | +
CC(C)C[C@@H](NC(=O)[C@H](C)NC(=O)CNC(=O)[C@@H](NC=O)C(C)C)C(=O)N[C@@H](C)C(=O)N[C@H](CC(C)C)C(=O)N[C@H](C(=O)N[C@@H](C(=O)N[C@@H](Cc1c[nH]c2ccccc12)C(=O)N[C@@H](C(=O)N[C@@H](Cc1c[nH]c2ccccc12)C(=O)N[C@H](CC(C)C)C(=O)N[C@@H](Cc1c[nH]c2ccccc12)C(=O)N[C@H](CC(C)C)C(=O)N[C@@H](Cc1c[nH]c2ccccc12)C(=O)NCCO)C(C)C)C(C)C)C(C)C [compound 7198] (For-VGA[dL]A[dL]V[dV]W[dV]W[dL]W[dL]W-NHCH2CH2OH) | 1.09 | 16.1 | +
CC(C)C[C@@H](NC(=O)[C@H](C)NC(=O)CNC(=O)[C@@H](NC=O)C(C)C)C(=O)N[C@@H](C)C(=O)N[C@H](CC(C)C)C(=O)N[C@H](C(=O)N[C@H](CC(C)C)C(=O)N[C@@H](Cc1c[nH]c2ccccc12)C(=O)N[C@@H](C(=O)N[C@@H](Cc1c[nH]c2ccccc12)C(=O)N[C@H](CC(C)C)C(=O)N[C@@H](Cc1c[nH]c2ccccc12)C(=O)N[C@H](CC(C)C)C(=O)N[C@@H](Cc1c[nH]c2ccccc12)C(=O)NCCO)[C@H](C)O)C(C)C [compound 7211] (For-VGA[dL]A[dL]V[dL]W[dT]W[dL]W[dL]W-NHCH2CH2OH) | 1.03 | 100.0 | -
CNC(=O)C[C@@H](NC(=O)[C@H](Cc1c[nH]c2ccccc12)NC(=O)[C@H](NC(=O)[C@H](Cc1c[nH]c2ccccc12)NC(=O)[C@@H](CC(C)C)NC(=O)[C@H](Cc1c[nH]c2ccccc12)NC(=O)[C@H](NC(=O)[C@@H](NC(=O)[C@@H](CC(C)C)NC(=O)[C@H](C)NC(=O)[C@H](NC(=O)[C@H](C)NC(=O)CNC(=O)[C@@H](NC=O)C(C)C)C(C)C)C(C)C)C(C)C)C(C)C)C(=O)N[C@@H](Cc1c[nH]c2ccccc12)C(=O)NCCO [compound 7228] (For-VGA[dV]A[dL]V[dV]W[dL]W[dV]W[dD](NHMe)W-NHCH2CH2OH) | 1.06 | 100.0 | -
